# Measurements published in PubChem BioAssay AID2053 (NMMLSC, 2009).
# Biological target: GTPase HRas (Homo sapiens) (UniProt P01112)
# Experiment: Ras wild-type GTP-binding inhibitors, SAR follow-up, biochemical, oxadiazole analogs, multiplex bead flow cytometry (AID 2053)
# Conditions: GST-Ras beads, Bodipy-FL-GTP binding, Ki calculated from EC50
# Chain of GTPase HRas (Homo sapiens) (P01112 whole entry, looked up): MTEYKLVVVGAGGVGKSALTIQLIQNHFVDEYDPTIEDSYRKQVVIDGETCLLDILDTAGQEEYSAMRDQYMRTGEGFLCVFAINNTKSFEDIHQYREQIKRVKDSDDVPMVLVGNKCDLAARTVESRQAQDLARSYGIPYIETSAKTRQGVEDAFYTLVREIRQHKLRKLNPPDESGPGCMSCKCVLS
row,SMILES,Ki
1,COc1ccc(-c2noc(CCC(=O)N3CCN(c4cc(C)ccc4C)CC3)n2)cc1,0.27 µM
2,Cc1ccc(C)c(N2CCN(C(=O)CCc3nc(-c4ccccc4Br)no3)CC2)c1,0.01 µM
3,Cc1ccc(C)c(N2CCN(C(=O)CCc3nc(-c4ccccc4)no3)CC2)c1,0.14 µM
4,COc1ccc(-c2noc(CCC(=O)N3CCN(c4ccccc4Cl)CC3)n2)cc1,0.29 µM
5,Cc1ccc(C)c(N2CCN(C(=O)CCc3nc(-c4ccc(Br)cc4)no3)CC2)c1,0.29 µM
6,COc1cccc(-c2noc(CCC(=O)N3CCN(c4cc(C)ccc4C)CC3)n2)c1,0.23 µM
7,COc1ccc(-c2noc(CCC(=O)N3CCN(c4ccccc4F)CC3)n2)cc1,0.01 µM
